Measurements as given in patent US10370356B2, “Pyridinone dicarboxamide for use as bromodomain inhibitors” (GlaxoSmithKline Intellectual Property (No. 2) Limited, priority 2015, dated 2019).
Counter-ions that a name gives are not always drawn.

Each compound was assayed on BET family (BRD2, BRD3, BRD4 and BRDT) tandem bromodomain proteins (assay: Fluorescence Polarisation binding of Reference Compound X to single and double mutant tandem BET proteins). Conditions: double mutant tandem proteins versus non mutated, wild type tandem BET proteins.
Parameters: species or system Human
Experimental: The competition of the compounds of formula (I) with Reference Compound X for binding to the BET family (BRD2, BRD3, BRD4 and BRDT) was assessed using protein truncates spanning both bromodomain 1 (BD1) and bromodomain 2 (BD2). In order to monitor differential binding to either BD1 or BD2, single residue mutations of key tyrosines to alanine were made in the acetyl lysine binding pockets. To validate this approach, a double residue mutant tandem domain protein was produced for each of the BET family members. Utilising a Fluorescence Polarisation approach, binding affinities for each of the single and double mutants for Reference Compound X were determined. […] The affinities of the single mutated bromdomain tandem proteins for Reference Compound X were equi-potent with the corresponding non-mutated BET protein. […] In the TR-FRET competition assay, Reference Compound X is used at a concentration that is equivalent to the Kd for the non-mutated bromodomain, which ensures that no binding at the mutated bromodomain is detected. […]

| SMILES | reduction in Kd [fold] |
| --- | --- |
| COc1ccc2c(c1)C(c1ccc(Cl)cc1)=N[C@@H](CC(=O)NCCCCCNC(=O)CCCCCC1(C)/C(=C/C=C/C=C/C3=[N+](CCCCS(=O)(=O)O)c4ccc(S(=O)(=O)O)cc4C3(C)C)N(CCCCS(=O)(=O)[O-])c3ccc(S(=O)(=O)O)cc31)c1nnc(C)n1-2 (stereo partly shown) [Reference Compound X] | > 1000 |

Same assay, conditions: single mutations of Tyrosine to Alanine

| SMILES | reduction of the Kd of the interaction between the mutated bromodomain and Reference Compound X [fold] |
| --- | --- |
| COc1ccc2c(c1)C(c1ccc(Cl)cc1)=N[C@@H](CC(=O)NCCCCCNC(=O)CCCCCC1(C)/C(=C/C=C/C=C/C3=[N+](CCCCS(=O)(=O)O)c4ccc(S(=O)(=O)O)cc4C3(C)C)N(CCCCS(=O)(=O)[O-])c3ccc(S(=O)(=O)O)cc31)c1nnc(C)n1-2 (stereo partly shown) [Reference Compound X] | > 1000 |

The compounds below were run against T1, BRD4 BD2 (Homo sapiens, UniProt O60885, Y97A) (assay: BRD4 BD2 mutant TR-FRET competition assay). Conditions: average of N recorded values, read-out: BRD4 BD2 IC50 (average value) (converted).
T1 construct: BRD4 (1-477) (Y97A) and (Y390A); made in house; host or cells: E. coli (pET15b vector)
Assay type: binding

| IC50 [µM] | SMILES |
| --- | --- |
| 0.0501 | CNC(=O)c1cc(C(=O)NCCC[C@H]2OC[C@H](N)CO2)cn(Cc2ccccc2)c1=O [Example 88, N^5-(3-((2r,5r)-5-Amino-1,3-dioxan-2-yl)propyl)-1-benzyl-N^3-methyl-2-oxo-1,2-dihydropyridine-3,5-dicarboxamide] |

Same assay, conditions: read-out: pIC50 in the BRD4 BD2 assay (converted)

| SMILES | IC50 [µM] |
| --- | --- |
| CNC(=O)c1cc(C(=O)N[C@H]2[C@@H]3CN(C(=O)OC(C)(C)C)C[C@@H]32)cn(Cc2ccccc2)c1=O [Example 75, (1R,5S,6s)-Tert-butyl 6-(1-benzyl-5-(methylcarbamoyl)-6-oxo-1,6-dihydropyridine-3-carboxamido)-3-azabicyclo[3.1.0]hexane-3-carboxylate] | ≤ 0.1 |
| CNC(=O)c1cc(C(=O)N[C@H]2[C@@H]3CN(C(=O)OC(C)(C)C)C[C@@H]32)cn(Cc2cccc3[nH]ccc23)c1=O [Example 79, (1R,5S,6s)-tert-Butyl 6-(1-((1H-indol-4-yl)methyl)-5-(methylcarbamoyl)-6-oxo-1,6-dihydropyridine-3-carboxamido)-3-azabicyclo[3.1.0]hexane-3-carboxylate] | ≤ 0.1 |
| CNC(=O)c1cc(C(=O)N[C@H]2[C@@H]3CNC[C@@H]32)cn(Cc2cccc3[nH]ccc23)c1=O [Example 80] | ≤ 0.1 |
| CNC(=O)c1cc(C(=O)N[C@H]2[C@@H]3CN(C(C)=O)C[C@@H]32)cn(Cc2cccc3[nH]ccc23)c1=O [Example 81, 1-((1H-Indol-4-yl)methyl)-N^5-((1R,5S,6s)-3-acetyl-3-azabicyclo[3.1.0]hexan-6-yl)-N^3-methyl-2-oxo-1,2-dihydropyridine-3,5-dicarboxamide] | ≤ 0.1 |
| CNC(=O)c1cc(C(=O)N[C@H]2[C@@H]3CN(CCNC(=O)OC(C)(C)C)C[C@@H]32)cn(Cc2cccc3[nH]ccc23)c1=O [Example 85, tert-Butyl (2-((1R,5S,6s)-6-(1-((1H-indol-4-yl)methyl)-5-(methylcarbamoyl)-6-oxo-1,6-dihydropyridine-3-carboxamido)-3-azabicyclo[3.1.0]hexan-3-yl)ethyl)carbamate] | ≤ 0.1 |
| CNC(=O)c1cc(C(=O)N[C@H]2[C@@H]3CN(CCN)C[C@@H]32)cn(Cc2cccc3[nH]ccc23)c1=O [Example 86, 1-((1H-Indol-4-yl)methyl)-N^5-((1R,5S,6s)-3-(2-aminoethyl)-3-azabicyclo[3.1.0]hexan-6-yl)-N^3-methyl-2-oxo-1,2-dihydropyridine-3,5-dicarboxamide] | ≤ 0.1 |
| CNC(=O)c1cc(C(=O)N[C@H]2[C@@H]3CN(CCNC(C)=O)C[C@@H]32)cn(Cc2cccc3[nH]ccc23)c1=O [Example 87, 1-((1H-Indol-4-yl)methyl)-N^5-((1R,5S,6s)-3-(2-acetamidoethyl)-3-azabicyclo[3.1.0]hexan-6-yl)-N^3-methyl-2-oxo-1,2-dihydrouridine-3,5-dicarboxamide] | ≤ 0.1 |
| CNC(=O)c1cc(C(=O)NC2CN(S(C)(=O)=O)C2)cn(Cc2ccccc2)c1=O [Example 90, 1-benzyl-N^3-methyl-N^5-(1-(methylsulfonyl)azetidin-3-yl)-2-oxo-1,2-dihydropyridine-3,5-dicarboxamide] | 0.1 to 1 |

Next, values leading:

| IC50 [µM] | SMILES |
| --- | --- |
| ≤ 0.1 | CNC(=O)c1cc(C(=O)N[C@H]2[C@@H]3CNC[C@@H]32)cn(Cc2ccccc2)c1=O [Example 76, 1-Benzyl-N^5-((1R,5S,6s)-3-azabicyclo[3.1.0]hexan-6-yl)-N^3-methyl-2-oxo-1,2-dihydropyridine-3,5-dicarboxamide] |
| 0.1 to 1 | CCNC(=O)c1cc(C(=O)NCCCC2CCNCC2)cn(Cc2ccccc2)c1=O [Example 78, 1-benzyl-N^3-ethyl-2-oxo-N^5-(3-(piperidin-4-yl)propyl)-1,2-dihydropyridine-3,5-dicarboxamide] |
| ≤ 0.1 | CCNC(=O)c1cc(C(=O)NCCC[C@]2(F)CCCNC2)cn(Cc2ccccc2)c1=O [Example 82] |
| 0.1 to 1 | CCNC(=O)c1cc(C(=O)NCC[C@@H]2CNCCO2)cn(Cc2ccccc2)c1=O [Example 83, (R)-1-benzyl-N^3-ethyl-N^5-(2-(morpholin-2-yl)ethyl)-2-oxo-1,2-dihydropyridine-3,5-dicarboxamide] |
| ≤ 0.1 | CCNC(=O)c1cc(C(=O)NCCC[C@@H]2CNCCO2)cn(Cc2ccccc2)c1=O [Example 84, (R)-1-benzyl-N^3-ethyl-N^5-(3-(morpholin-2-yl)propyl)-2-oxo-1,2-dihydropyridine-3,5-dicarboxamide] |
| ≤ 0.1 | CNC(=O)c1cc(C(=O)NCCC[C@H]2OC[C@H](N)CO2)cn(Cc2ccccc2)c1=O [Example 88, N^5-(3-((2r,5r)-5-Amino-1,3-dioxan-2-yl)propyl)-1-benzyl-N^3-methyl-2-oxo-1,2-dihydropyridine-3,5-dicarboxamide] |
| 0.1 to 1 | CNC(=O)c1cc(C(=O)NCCOC2CCNCC2)cn(Cc2ccccc2)c1=O [Example 89, 1-benzyl-N^3-methyl-2-oxo-N^5-(2-(piperidin-4-yloxy)ethyl)-1,2-dihydropyridine-3,5-dicarboxamide hydrochloride] |
| 0.1 to 1 | CNC(=O)c1cc(C(=O)NC2COC2)cn(Cc2ccccc2)c1=O [Example 91, 1-benzyl-N^3-methyl-N^5-(oxetan-3-yl)-2-oxo-1,2-dihydropyridine-3,5-dicarboxamide] |
